#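 Results reflect a 48-hour exposure of cells in 96-well plates to compound at five concentrations. TGI: total growth inhibition.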
# Experiments:
# Assay in all cases: DTP human tumour cell line panel, 48 h
# [1] = test system: MDA-MB-435
# [2] = test system: ACHN renal
# [3] = test system: CAKI-1 renal
# [4] = test system: HCT-116 colon
# [5] = test system: SNB-75 CNS
# [6] = test system: NCI-H23 lung
# [7] = test system: A549 NSCLC
# [8] = test system: SF-539 CNS
# [9] = test system: SK-MEL-28 melanoma
# [10] = test system: SR leukemia
# [11] = test system: MOLT-4 leukemia
# [12] = test system: TK-10 renal
# [13] = test system: MDA-N
# [14] = test system: SN12C renal
# [15] = test system: UACC-257 melanoma
# [16] = test system: KM12 colon
# [17] = test system: OVCAR-5 ovarian
# [18] = test system: SF-295 CNS
# [19] = test system: HCC-2998 colon
# [20] = test system: RPMI-8226 leukemia
SMILES,TGI [1],TGI [2],TGI [3],TGI [4],TGI [5],TGI [6],TGI [7],TGI [8],TGI [9],TGI [10],TGI [11],TGI [12],TGI [13],TGI [14],TGI [15],TGI [16],TGI [17],TGI [18],TGI [19],TGI [20]
COC(OC)C1(c2ccccc2)Oc2ccccc2C1=O (stereo not given),> 100 µM,> 100 µM,> 100 µM,> 100 µM,> 100 µM,> 100 µM,> 100 µM,> 100 µM,> 100 µM,> 100 µM,> 100 µM,> 100 µM,> 100 µM,> 100 µM,> 100 µM,> 100 µM,> 100 µM,> 100 µM,> 100 µM,> 100 µM
C/C=C1/CN2CCC34C5=CC(=O)C(c6cc7c(cc6OC)N(C)C6=C(C(=O)OC)CC8(CC)CCCN9CCC67C98)=CC5=NC23CCC1C4C(=O)OC (stereo not given),26 µM,29.1 µM,21.9 µM,23.1 µM,21.6 µM,28.2 µM,30.3 µM,28 µM,31 µM,6.63 µM,6.94 µM,30.9 µM,27 µM,27.7 µM,27.1 µM,30.3 µM,16.8 µM,31.6 µM,29.5 µM,16.6 µM
Oc1c(Cl)ccc2cccnc12,> 100 µM,35.8 µM,> 100 µM,4.56 µM,89.6 µM,> 100 µM,> 100 µM,34.7 µM,> 100 µM,13.5 µM,5.76 µM,> 100 µM,> 100 µM,88.5 µM,84.2 µM,> 100 µM,> 100 µM,68.4 µM,> 100 µM,8.28 µM
CC(C)(C)C1CCC2c3c([nH]c4ccccc34)C3C(=O)N(c4cccc(Cl)c4)C(=O)C3C2C1 (stereo not given),48.9 µM,44.2 µM,53.2 µM,19.3 µM,50.1 µM,25.3 µM,> 55.8 µM,35.5 µM,32 µM,> 36 µM,13 µM,39 µM,24.7 µM,15.6 µM,29.6 µM,14.5 µM,30.3 µM,44.7 µM,12.4 µM,> 72.2 µM
N#Cc1cc2c(n(C3OC(CO)C(O)C(O)C3O)c1=S)CCCCC2 (stereo not given),> 100 µM,> 100 µM,> 100 µM,> 100 µM,> 100 µM,> 100 µM,> 100 µM,> 100 µM,> 100 µM,> 100 µM,> 100 µM,> 100 µM,> 100 µM,> 100 µM,> 100 µM,> 100 µM,> 100 µM,> 100 µM,> 100 µM,> 100 µM
CCOC(=O)c1c(Nc2ccccc2)sc2cccnc12,54.6 µM,> 88 µM,98.4 µM,46.7 µM,59.3 µM,67.2 µM,81.1 µM,23.6 µM,63 µM,59.6 µM,55.9 µM,86.1 µM,58.3 µM,45 µM,51.1 µM,37.6 µM,79.4 µM,49.9 µM,77.8 µM,58.3 µM
Cn1c(=O)c2[nH]c(/N=N\n3ccc4ccccc43)nc2n(C)c1=O,> 100 µM,> 100 µM,> 100 µM,> 100 µM,> 100 µM,> 100 µM,> 100 µM,> 100 µM,> 100 µM,> 100 µM,> 100 µM,> 100 µM,> 100 µM,> 100 µM,> 100 µM,> 100 µM,> 100 µM,> 100 µM,> 100 µM,> 100 µM
CCOC(=O)N/N=C/C1=NN(C(=O)OCC)S(=O)C1C (stereo not given),> 100 µM,> 100 µM,> 100 µM,> 100 µM,> 100 µM,> 100 µM,> 100 µM,> 100 µM,> 100 µM,> 100 µM,> 100 µM,> 100 µM,> 100 µM,> 100 µM,> 100 µM,> 100 µM,> 100 µM,> 100 µM,> 100 µM,> 100 µM
COC(=O)C1=C(O)C(C(=O)OC)[C@]2(O)[C@H](C(=O)OC)[C@H]1C[C@@H](c1ccccc1OC)[C@H]2C(=O)OC (stereo not given in full),9.79 µM,21.3 µM,17.5 µM,12.9 µM,> 71.3 µM,14.8 µM,21.7 µM,> 23.7 µM,27.1 µM,7.04 µM,25.5 µM,> 54.7 µM,4.79 µM,17.4 µM,> 51.6 µM,21.9 µM,16.4 µM,25.6 µM,22.2 µM,8.82 µM
NC(N)=NS(=O)(=O)c1ccc(Nc2c3ccccc3nc3ccc(C(=O)Nc4ccc(S(N)(=O)=O)cc4)cc23)cc1,> 100 µM,> 100 µM,> 100 µM,> 100 µM,> 100 µM,> 100 µM,> 100 µM,> 100 µM,> 100 µM,> 100 µM,> 100 µM,> 100 µM,> 100 µM,> 100 µM,> 100 µM,> 100 µM,> 100 µM,> 100 µM,> 100 µM,> 100 µM
CSc1nc(C)cc(N(C)c2ccccc2)n1,53 µM,> 100 µM,> 100 µM,> 100 µM,94.3 µM,95.3 µM,> 100 µM,66 µM,> 100 µM,60.7 µM,> 100 µM,98.9 µM,61.3 µM,> 100 µM,84 µM,20 µM,> 100 µM,> 100 µM,> 100 µM,> 100 µM
COc1ccc(-c2cn3c(nc4ccccc43)c(C)n2)cc1,> 100 µM,> 100 µM,> 100 µM,> 100 µM,> 86.1 µM,> 100 µM,> 100 µM,> 100 µM,> 100 µM,> 100 µM,> 100 µM,> 100 µM,> 100 µM,> 100 µM,> 100 µM,> 100 µM,> 100 µM,> 100 µM,> 100 µM,> 100 µM
C/C(=N/NC(=S)N1CCCCCC1)c1ccccc1O,> 100 µM,39 µM,> 96.2 µM,> 100 µM,69.1 µM,> 100 µM,> 100 µM,28.5 µM,> 100 µM,4.57 µM,24.4 µM,> 100 µM,> 100 µM,40.9 µM,30.9 µM,> 53.7 µM,> 100 µM,> 100 µM,> 42.1 µM,40.4 µM
COC(=O)/C=C1/OC(c2ccc(Br)cc2)=C(Br)C1=O,20.9 µM,16.8 µM,6.32 µM,7.75 µM,17.5 µM,17.1 µM,33.6 µM,12.7 µM,27.2 µM,3.31 µM,6.87 µM,17.6 µM,12.6 µM,17.6 µM,27.5 µM,22.4 µM,12.5 µM,28.9 µM,18.6 µM,6.06 µM
COc1cccc2c3cccc(OC)c3c3[nH]cnc3c12,4.1 µM,22.4 µM,37.9 µM,3.1 µM,8.58 µM,3.37 µM,3.08 µM,2.68 µM,9.53 µM,5.15 µM,6.27 µM,3.91 µM,3.34 µM,22.3 µM,36.1 µM,4.56 µM,10 µM,9.51 µM,11.9 µM,5.67 µM
C/C=C/C=C/C1=NN(c2cccc(S(=O)(=O)O)c2)C2(C1)C(Cl)C(=O)N2c1nc2ccccc2s1 (stereo not given),26.6 µM,28.8 µM,20.9 µM,27.7 µM,25.9 µM,32.1 µM,28.3 µM,27.8 µM,43.6 µM,> 54.3 µM,> 68.5 µM,27.8 µM,29 µM,32.1 µM,33.5 µM,27.3 µM,34.8 µM,31 µM,31.5 µM,> 51.6 µM
Fc1cc(C2=C[C@H](c3ccc4c(c3)OCO4)NC(=S)N2)c(Cl)cc1Cl,> 100 µM,> 100 µM,> 100 µM,> 100 µM,91.1 µM,> 100 µM,> 100 µM,> 100 µM,> 100 µM,> 100 µM,> 100 µM,96.4 µM,> 100 µM,90.8 µM,83.6 µM,> 100 µM,> 100 µM,> 100 µM,75.4 µM,> 100 µM
C/C(=C/CNc1ncnc2c1ncn2CCC(=O)O)CO,> 100 µM,> 100 µM,> 100 µM,> 100 µM,> 100 µM,> 100 µM,> 100 µM,> 100 µM,> 100 µM,> 100 µM,> 100 µM,> 100 µM,> 100 µM,> 100 µM,> 100 µM,> 100 µM,> 100 µM,> 100 µM,> 100 µM,> 100 µM
CC(=O)OCC1OC(O[C@@H]2C[C@H]3C(C)(C)[C@H](OC(C)=O)CC[C@]3(C)[C@H]3CC[C@@]45C[C@H](O)C[C@H](C)[C@@H]4CC=C5[C@@]32C)C(O)C(O)C1O (stereo not given in full),11.2 µM,18.5 µM,24.6 µM,4.85 µM,10.9 µM,18.3 µM,16.9 µM,19.2 µM,19.4 µM,4.27 µM,6.33 µM,21.4 µM,12.4 µM,15.5 µM,17.8 µM,7.59 µM,6.42 µM,12.5 µM,3.72 µM,6.02 µM
COc1ccc(Cc2nc3cc(Cl)ccc3o2)cc1,69 µM,> 100 µM,> 100 µM,> 100 µM,59.1 µM,> 100 µM,> 100 µM,> 100 µM,> 100 µM,> 100 µM,> 100 µM,> 100 µM,> 100 µM,> 100 µM,70.6 µM,> 100 µM,> 100 µM,> 100 µM,56.8 µM,83.9 µM
CCN(CC)CC(O)CNc1ccc(NCC(O)CCl)c2c1C(=O)c1ccccc1C2=O (stereo not given),18.6 µM,16.3 µM,21.9 µM,14.5 µM,24.9 µM,18.1 µM,24.4 µM,19.1 µM,25.4 µM,11.6 µM,8.82 µM,25.5 µM,19.7 µM,19.7 µM,16 µM,17 µM,29.2 µM,22.1 µM,21.6 µM,26.6 µM
CCN(CC)C(=O)C1=C(C)NC(C)=C(C(=O)N(CC)CC)C1,> 100 µM,> 100 µM,> 100 µM,> 100 µM,93.4 µM,> 100 µM,> 100 µM,> 100 µM,> 100 µM,> 100 µM,> 100 µM,> 100 µM,> 100 µM,> 100 µM,> 100 µM,> 100 µM,> 100 µM,> 100 µM,> 100 µM,> 100 µM
CCOC(=O)c1c(N2CCOCC2)[nH]c(=O)c(C(c2c(O)c(C(=O)OCC)c(N3CCOCC3)[nH]c2=O)C(C)C)c1O,> 100 µM,> 100 µM,> 100 µM,> 100 µM,69.7 µM,> 100 µM,> 100 µM,> 100 µM,> 100 µM,> 100 µM,> 100 µM,> 100 µM,> 100 µM,> 100 µM,> 100 µM,> 100 µM,> 100 µM,> 100 µM,> 100 µM,> 100 µM
